According to US8058243B2, “Method for treating a brain cancer with ifenprodil” (HSC Research and Development Limited Partnership, priority 2006, dated 2011):
Read-outs that look alike come from different tables or passages of the source.

System: murine neural precursor cells (neurosphere cultures)
Assay: HTS of LOPAC library against secondary neurosphere cultures, MTT proliferation assay at 3 μM, day 7 (z score, P value)
Assay type: cell-based, mouse
[1] = LOPAC library screen, 3 μM, MTT, secondary neurosphere cultures, day 7
[2] = LOPAC primary screen, neurosphere MTT proliferation, 3 μM, day 7
[3] = yes/no: significantly inhibited neurosphere proliferation (P<0.01) in the primary screen
[4] = yes = significantly inhibited neurosphere proliferation (P<0.01) in the primary screen
[5] = LOPAC library screen, 3 μM, MTT, neurosphere cultures
[6] = yes/no: significantly inhibited neurosphere proliferation (P<0.01) in primary screen
[7] = LOPAC screen, neurosphere MTT proliferation, 3 μM, day 7
[8] = yes/no: significantly inhibited neurosphere proliferation in the primary screen
[9] = yes/no: significantly inhibited neurosphere proliferation in primary screen
[10] = primary LOPAC screen, 3 μM, MTT, neurosphere proliferation

SMILES: CN(C)CCC(c1ccc(Cl)cc1)c1ccccn1.O=C(O)/C=C\C(=O)O (single isomer, unassigned; (+)) [(+)-Chlorpheniramine maleate]
- Activity: no
- Z Score [1]: −1.272
- Z score [2]: −1.272

SMILES: COc1ccc2c(c1OC)C(=O)OC2C1c2cc3c(cc2CCN1C)OCO3 (single isomer, unassigned; (+)) [(+)-Hydrastine]
- Z Score: −0.8362
- Z score [2]: −0.836
- Activity [3]: no

SMILES: CC12NC(Cc3ccccc31)c1ccccc12.O=C(O)/C=C\C(=O)O (single isomer, unassigned; (+)) [(+)-MK-801 hydrogen maleate]
- Z Score: −0.09805
- Z score [2]: −0.098
- Activity [4]: no

SMILES: CC(C)NCC(O)c1ccc(O)c(O)c1.Cl (single isomer, unassigned; (-)) [(−)-Isoproterenol hydrochloride]
- Z Score [5]: 0.2367
- Z score [2]: 0.237
- Activity [6]: no

SMILES: CN1CCCC1c1cccnc1.O=C(O)C(O)C(O)C(=O)O (single isomer, unassigned; (-)) [(−)-Nicotine hydrogen tartrate salt]
- Activity: no
- Z Score: 0.04498
- Z score: 0.045

SMILES: CCN1CCCC1CNC(=O)c1cc(S(N)(=O)=O)ccc1OC (single isomer, unassigned; (-)) [(−)-Sulpiride]
- Z Score [1]: −2.647
- Z score [2]: −2.647
- Activity [3]: yes

SMILES: CC(N)C(O)c1ccc(O)c(O)c1 (single isomer, unassigned; (-)) [(−)-alpha-Methylnorepinephrine]
- Z Score: 1.193
- Z score [7]: 1.193
- Activity [6]: no

SMILES: N.N.N.Nc1ncnc2c1ncn2C1OC(COP(=O)(O)OP(=O)(O)OP(=O)(O)OP(=O)(O)OC[C@H]2O[C@@H](n3cnc4c(N)ncnc43)C(O)C2O)[C@@H](O)C1O (stereo in doubt)
- Z Score (LOPAC library screen at 3 μM, secondary neurosphere cultures, MTT): −0.2867
- Z score [7]: −0.287
- Activity [6]: no

SMILES: Nc1ncnc2c1nc(Sc1ccc(Cl)cc1)n2C1OC2COP(=O)(O)OC2C1O (stereo in doubt) [8-(4-Chlorophenylthio)-cAMP sodium]
- Z Score [5]: 1.217
- Z score [7]: 1.217
- Activity [6]: no

SMILES: CCCCC1(C2CCCC2)Cc2cc(OCC(=O)O)c(Cl)c(Cl)c2C1=O (stereo in doubt) [R(+)-Butylindazone]
- Z Score: 0.02924
- Z score [7]: 0.029
- Activity [6]: no

SMILES: C[N+]1(C)CCN(c2ccccc2)CC1.[I-] [1,1-Dimethyl-4-phenyl-piperazinium iodide]
- Z Score: −1.057
- Z score [7]: −1.057
- Activity [6]: no

SMILES: CCCc1c(-c2ccc(O)cc2)nn(-c2ccc(O)cc2)c1-c1ccc(O)cc1 [1,3,5-tris(4-hydroxyphenyl)-4-propyl-1H-pyrazole]
- Z Score (168 h, 3 µM): 0.7717
- Z score (168 h, 3 µM): 0.772
- Activity [6]: no

SMILES: CCn1c(=O)c2[nH]c(-c3ccccc3)nc2n(CC)c1=O [1,3-Diethyl-8-phenylxanthine]
- Z Score (168 h, 3 µM): 2.005
- Z score (168 h, 3 µM): 2.005
- Activity [8]: no

SMILES: Cn1c(=O)c2[nH]c(-c3ccccc3)nc2n(C)c1=O [1,3-Dimethyl-8-phenylxanthine]
- Z Score (168 h, 3 µM): 0.7518
- Z score (168 h, 3 µM): 0.752
- Activity [9]: no

SMILES: CCCn1c(=O)c2c(ncn2C)n(CCC)c1=O [1,3-Dipropyl-7-methylxanthine]
- Z Score (168 h, 3 µM): −0.08896
- Z score (168 h, 3 µM): −0.089
- Activity [6]: no

SMILES: CCCn1c(=O)c2[nH]c(-c3ccc(S(=O)(=O)O)cc3)nc2n(CCC)c1=O [1,3-Dipropyl-8-p-sulfophenylxanthine]
- Z Score: 4.743
- Z score: 4.743
- Activity [8]: no

SMILES: Br.Br.N=C(N)SCCc1cccc(CCSC(=N)N)c1 [1,3-PBIT dihydrobromide]
- Z Score: 2.221
- Z score [2]: 2.221
- Activity [9]: no

SMILES: OC[C@H]1NC[C@@H](O)[C@@H]1O [1,4-Dideoxy-1,4-imino-D-arabinitol]
- Z Score (168 h, 3 µM): −0.008617
- Z score (168 h, 3 µM): −0.009
- Activity [6]: no

SMILES: Br.Br.N=C(N)SCCc1ccc(CCSC(=N)N)cc1 [1,4-PBIT dihydrobromide]
- Z Score: −1.179
- Z score [2]: −1.179
- Activity [9]: no

SMILES: Oc1cccc2c(O)nccc12 [1,5-Isoquinolinediol]
- Z Score [5]: 0.02674
- Z score [2]: 0.027
- Activity [6]: no

SMILES: Cn1c(=O)[nH]c2ncn(C)c2c1=O [1,7-Dimethylxanthine]
- Z Score (168 h, 3 µM): −0.6623
- Z score (168 h, 3 µM): −0.662
- Activity [6]: no

SMILES: NCCCCCCCCCCN [1,10-Diaminodecane]
- Z Score (168 h, 3 µM): 0.1393
- Z score (168 h, 3 µM): 0.139
- Activity [6]: no

SMILES: O.c1cnc2c(c1)ccc1cccnc12 [1,10-Phenanthroline monohydrate]
- Z Score: −0.8855
- Z score [2]: −0.886
- Activity [9]: no

SMILES: Cl.c1ccc2c(N3CCNCC3)cccc2c1 [1-(1-Naphthyl)piperazine hydrochloride]
- Z Score: 0.2301
- Z score [2]: 0.230
- Activity [9]: no

SMILES: Clc1ccc(C(c2ccccc2Cl)C(Cl)Cl)cc1 (centres unmarked) [1-(2-Chlorophenyl)-1-(4-chlorophenyl)-2,2-dichloroethane]
- Z Score [1]: −2.508
- Z score [2]: −2.508
- Activity [4]: yes

SMILES: COc1ccccc1N1CCNCC1.Cl [1-(2-Methoxyphenyl)piperazine hydrochloride]
- Z Score: −0.6388
- Z score [2]: −0.639
- Activity [9]: no

SMILES: Cl.Cl.Clc1cccc(N2CCNCC2)c1 [1-(3-Chlorophenyl)piperazine dihydrochloride]
- Z score [7]: 0.952
- Activity [6]: no

SMILES: COc1ccc2c(c1)c(CC(=O)O)c(C)n2Cc1ccc(Cl)cc1 [1-(4-Chlorobenzyl)-5-methoxy-2-methylindole-3-acetic acid]
- Z Score [1]: −1.584
- Z score [10]: −1.584
- Activity [8]: no

SMILES: COc1ccc2c(c1)c(CC(=O)O)c(C)n2Cc1ccc(F)cc1 [1-(4-Fluorobenzyl)-5-methoxy-2-methylindole-3-acetic acid]
- Z Score (168 h, 3 µM): −0.5376
- Z score (168 h, 3 µM): −0.538
- Activity [6]: no

SMILES: Oc1ccc(Cn2ccnc2S)cc1 [1-(4-Hydroxybenzyl)imidazole-2-thiol]
- Z Score (168 h, 3 µM): 0.7628
- Z score (168 h, 3 µM): 0.763
- Activity [6]: no

SMILES: CC1CNCCN1S(=O)(=O)c1cccc2cnccc12.Cl.Cl (centres unmarked) [1-(5-Isoquinolinylsulfonyl)-2-methylpiperazine dihydrochloride]
- Z Score (168 h, 3 µM): 0.3352
- Z score (168 h, 3 µM): 0.335
- Activity [6]: no

SMILES: CC1CN(S(=O)(=O)c2cccc3cnccc23)CCN1.Cl.Cl (centres unmarked) [1-(5-Isoquinolinylsulfonyl)-3-methylpiperazine dihydrochloride]
- Z Score (168 h, 3 µM): 0.4769
- Z score (168 h, 3 µM): 0.477
- Activity [6]: no

SMILES: Cl.N=C(N)NC(=N)Nc1cccc(Cl)c1 [1-(m-Chlorophenyl)-biguanide hydrochloride]
- Z Score: 1.795
- Z score [2]: 1.795
- Activity [3]: no

SMILES: C=CCn1c(=O)c2c(nc(-c3ccc(S(=O)(=O)O)cc3)n2C)n(C)c1=O [1-Allyl-3,7-dimethyl-8-p-sulfophenylxanthine]
- Z Score [1]: −2.178
- Z score [10]: −2.178
- Activity [8]: no

SMILES: Cl.NC1(C(=O)O)CCCCC1 [1-Amino-1-cyclohexanecarboxylic acid hydrochloride]
- Z Score (168 h, 3 µM): −0.7495
- Z score (168 h, 3 µM): −0.749
- Activity [8]: no
